Consider 3 compounds from patent US7884135B2, “Modafinil-based treatment for premature ejaculation” (NeuroHealing Pharmaceuticals, Inc., priority 2006, dated 2011).

In data set [1] the test system is ejaculation during sexual activity. Put plainly: Delayed ejaculation with orally administered (tablet) racemic modafinil (Example 2, Subject 2). In kind it is in vivo, human. Particulars: 200 mg oral PROVIGIL tablet, hours after dosing. As for the experimental part:
Subject 2 took racemic modafinil (200 mg) in the form of an orally administrable tablet of PROVIGIL® (Cephalon) at 3:00 pm for the purpose of increasing alertness.

The conditions of data set [2]: cited from earlier work.
The test system of the next data set is mice. Particulars: cited from earlier work.
The subject of data set [3] is ejaculation during sexual activity. The data set can be described thus: Delayed ejaculation with sublingually administered d-modafinil (Example 1, Subject 1). In kind it is in vivo, human. Particulars: 100 mg d-modafinil formulation sublingually. As for the experimental part: The synthesized d-modafinil was compounded into a composition containing sugar, spearmint flavor, cinnamon flavor, gum arabic, gelatin, corn syrup, and dyes that could be administered sublingually. Formulations containing 100 mg of d-modafinil were prepared.
Subject 1 took the above-described formulation of d-modafinil sublingually at 9:00 pm in the course of testing a composition containing d-modafinil for a different effect unrelated to sexual activity.

Data set [4] can be described thus: pharmacokinetic studies of modafinil in the human body (literature). Particulars: l-enantiomer versus d-enantiomer. In kind it is in vivo. As for the experimental part:
The optical enantiomers of modafinil have similar pharmacological actions in animals. […] Owing to the differences in half-life and rate of clearance of the individual enantiomers, the use of racemic modafinil results in differences in the circulating levels of the two enantiomers. […] After a single oral dose, racemic modafinil is readily absorbed, reaching maximum plasma concentrations at 2 hours to 4 hours after administration (see, e.g., Wong et al., J. Clin. Pharmacol., 39: 3040 (1999); Wong et al., J. Clin. Pharmacol., 39: 281-288 (1999); Robertson et al., Clin. Pharmacokinet., 42: 123-137 (2003); and Dinges et al., Curr. Medical Research and Opinions, 22: 159-169 (2006)).

On to `NC(=O)C[S+]([O-])C(c1ccccc1)c1ccccc1` (racemic) [modafinil, 2-[(diphenylmethyl)sulfinyl]acetamide], for which the “delay in ejaculation during sexual activity” value in data set [1] is reported as “experienced a delay in ejaculation”. In addition, in data set [2] (humans, ingestion of PROVIGIL tablets, package insert), the “fraction of modafinil eliminated by the liver” value is recorded as no more than 90%.

Take `NC(=O)C[S@+]([O-])C(c1ccccc1)c1ccccc1` [d-modafinil, S-(+)-modafinil]: in data set [2] (after use of racemic modafinil), the “amount in the circulation relative to l-modafinil” value was “three times less”. In data set [2] (human, d-modafinil versus l-modafinil), the “elimination rate relative to l-modafinil” value is “three times faster”. The “pharmacological activity compared with the modafinil racemic compound” value with mice was “same pharmacological activity”. For the same compound, the “time to ejaculate during sexual activity, factor longer than usual” value in data set [3] (first administration) is “about two to three”. Moreover, in data set [3] (second administration a week later), the “time to ejaculate during sexual intercourse, factor of delay” value is reported as “about two to three”.

With `NC(=O)C[S@@+]([O-])C(c1ccccc1)c1ccccc1` [l-modafinil, R-(−)-modafinil, reference compound], the “pharmacological activity compared with the modafinil racemic compound” value in the data set with mice is reported as “same pharmacological activity”. Besides, the “half-life relative to the d-enantiomer” value in data set [4] is given as “approximately three-times longer”.
